Experimental data from patent US20260069722A1, “COMPOSITION FOR FLUORESCENT LABELING, FLUORESCENT PROBE, INJECTION AGENT, SYRINGE FILLING, MEDICAL APPARATUS, MEDICAL FIBER MATERIAL, METHOD FOR PRODUCING COMPOSITION FOR FLUORESCENT LABELING, AND METHOD FOR PRODUCING MEDICAL FIBER MATERIAL” (VITA CORPORATION, priority 2022, published 2026).

Assay: mixing and kneading of ICG pigment with resin, compression molding
Format: physicochemical
Details: pigment (ICG in glycerol) 1 to 7 phr kneaded with PP, PVC, LDPE, EVA, TPU at 140 to 170 degrees Celsius
Protocol: Pigment (ICG plus solvent) was mixed and kneaded with various types of resin, and then it was verified whether or not a sheet could be manufactured by compression molding.
As the various types of resin, five types were prepared, which include polypropylene (PP), polyvinyl chloride (PVC), low-density polyethylene (LDPE), ethylene-vinyl acetate copolymer resin (EVA), and thermoplastic polyurethane (TPU). As the pigment, viscous liquid was used in which […] 25 mg of ICG were mixed and dissolved with 10 ml of glycerol.
In addition, four patterns, i.e., 1 phr, 3 phr, 5 phr, and 7 phr of the above pigment were prepared. Note that phr is abbreviation of per hundred resin, which is a unit expressing a ratio of pigment mixed in resin whose weight is 100. For instance, if A g of pigment is in 100 g of resin, the pigment ratio can be said to be A (phr).
The resin was charged into a mixer that had been preheated, and was kneaded until it was plasticized. As the above mixer, Laboplast mill 4 M150 manufactured by Toyo Seiki Seisaku-sho, Ltd. was used. Note that “Laboplast mill” is a registered trademark of Toyo Seiki Seisaku-sho, Ltd. This step was performed for each resin prepared in advance. Mixing and kneading was performed for five minutes at temperature set for each resin. […]

CC1(C)C(/C=C/C=C/C=C/C=C2\N(CCCCS(=O)(=O)[O-])c3ccc4ccccc4c3C2(C)C)=[N+](CCCCS(=O)(=O)[O-])c2ccc3ccccc3c21.[Na+] [ICG, indocyanine green]
thermal degradation due to mixing and kneading: thermal degradation of ICG due to mixing and kneading can be suppressed
